Measurements taken from patent publication US10273267B2, “Beta-hairpin peptidomimetics as selective elastase inhibitors” (POLYPHOR AG, priority 2013, dated 2019).
*1 amine or outer side, *2 acyl side, *3 side chain or, on linkers, in order; H or OH if unused. Where a SMILES comes first, the peptide text is derived from it. [ ]: non-standard residue; d: D form. Oic = O=C(O)[C@@H]1C[C@@H]2CCCC[C@@H]2N1; X1 = NCCCC[C@@H](CCC(=O)[*:2])N[*:1]; Gly(octyl) = CCCCCCCC[C@H](N)C(=O)O; N(CH2CH2COOH)Gly = O=C(O)CCNCC(=O)O; hTyr = N[C@@H](CCc1ccc(O)cc1)C(=O)O; β3hQ = NC(=O)CC[C@H](N)CC(=O)O; β3hK = NCCCC[C@H](N)CC(=O)O; β3hP = O=C(O)C[C@@H]1CCCN1; Nlys = NCCCCNCC(=O)O

Tests used:
Assay type in all cases: biochemical
[1] = target: T1, human neutrophil elastase (Homo sapiens, UniProt P08246); test: Inhibition of human neutrophil elastase (hydrolysis of MeOSuc-AAPV-pNA); details: substrate MeOSuc-AAPV-pNA 0.3 mM, enzyme 10 nM, 37° C., pH 8; read-out: Human neutrophil elastase (hNE) IC50
T1 construct: purchased Serva Electrophoresis, Germany
T1 sequence (P08246 30-267): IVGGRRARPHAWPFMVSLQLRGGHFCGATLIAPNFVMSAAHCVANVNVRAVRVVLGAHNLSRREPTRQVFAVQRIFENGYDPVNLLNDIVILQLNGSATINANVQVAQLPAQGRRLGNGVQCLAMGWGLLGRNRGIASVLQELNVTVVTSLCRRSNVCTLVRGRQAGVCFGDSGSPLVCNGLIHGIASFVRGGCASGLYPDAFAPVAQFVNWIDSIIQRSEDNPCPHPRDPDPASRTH
Procedure, shortened: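 MeOSuc-AAPV-pNA (0.3 mM) hydrolysis by 10 nM enzyme at 37° C with serially diluted peptides (1% DMSO) in 50 mM Tris pH 8, 300 mM NaCl, 0.01% Tween20. pNA release read at 405 nm over 30 minutes; IC50 from 4-parameter Hill fit.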

human proteinase 3 = target: T2, human proteinase 3 (Homo sapiens, UniProt P24158); test: Inhibition of human proteinase 3 (substrate Boc-Ala-Ala-Nva-SBzl); details: for hNE/hPr3 selectivity: ratio of hPr3 IC50 to hNE IC50; for IC50: substrate Boc-Ala-Ala-Nva-SBzl 1 mM, enzyme 10 nM, 37° C., pH7.4, read-out: Human proteinase 3 (hPr3) IC50
T2 construct: purchased Elastin Products Company, USA
T2 sequence (P24158 28-248): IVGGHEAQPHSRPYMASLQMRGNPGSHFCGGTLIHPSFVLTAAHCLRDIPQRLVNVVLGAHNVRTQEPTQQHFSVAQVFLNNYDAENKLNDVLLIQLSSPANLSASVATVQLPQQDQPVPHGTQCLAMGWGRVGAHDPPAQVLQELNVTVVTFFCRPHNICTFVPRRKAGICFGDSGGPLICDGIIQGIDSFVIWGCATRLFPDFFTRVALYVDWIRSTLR
Procedure, shortened: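 Enzyme at 10 nM incubated at 37°C with 1 mM thiobenzyl ester substrate, 250 μM 4,4′-dithiodipyridine and serial peptide dilutions (0.5% DMSO) in Tris pH 7.4, 150 mM NaCl, 0.01% Tween20. Absorbance at 340 nm followed over 30 min; IC50 from 4-parameter Hill fit.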

[2] = target: T3, porcine pancreatic elastase (Sus scrofa, UniProt P00772); test: Inhibition of porcine pancreatic elastase (hydrolysis of MeOSuc-AAA-pNA); details: for hNE/PPE selectivity: ratio of PPE IC50 to hNE IC50; for IC50: substrate MeOSuc-AAA-pNA 1 mM, enzyme 15 nM, 37° C., pH8, read-out: Porcine pancreatic elastase (PPE) IC50
T3 construct: purchased Sigma, USA
Procedure, shortened: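 Elastase (15 nM) incubated at 37 °C with 1 mM MeOSuc-AAA-pNA and serially diluted peptides (0.5% DMSO) in 50 mM Tris pH 8, 100 mM NaCl, 0.01% Tween20. pNA release read at 405 nm over 30 min; IC50 from 4-parameter Hill fit.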

T3 sequence (P00772 27-266): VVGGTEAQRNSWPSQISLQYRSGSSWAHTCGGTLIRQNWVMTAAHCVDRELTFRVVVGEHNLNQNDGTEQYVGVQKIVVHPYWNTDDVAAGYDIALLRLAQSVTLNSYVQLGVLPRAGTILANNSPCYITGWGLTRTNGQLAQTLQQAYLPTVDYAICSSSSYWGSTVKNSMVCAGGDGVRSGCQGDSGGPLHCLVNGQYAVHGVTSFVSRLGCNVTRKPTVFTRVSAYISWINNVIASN

Row | Compound | IC50 [1] | hNE/hPr3 selectivity (human proteinase 3) | IC50 (human proteinase 3) | hNE/PPE selectivity [2] | IC50 [2]
1 | CCCCCCCC[C@@H]1NC(=O)[C@H](Cc2ccc(O)cc2)NC(=O)[C@@H](CO)NC(=O)[C@H]([C@@H](C)O)NC(=O)[C@H](CCCCN)NC(=O)[C@H](CCC(N)=O)NC(=O)[C@@H]2CCCN2C(=O)[C@@H]2CCCN2C(=O)[C@H]([C@@H](C)CC)NC(=O)[C@H](CO)NC(=O)[C@H](C)NC(=O)[C@H]([C@@H](C)O)NC(=O)[C@H](CCC(=O)O)NC1=O [Example 31, Cyclo(-OctGly-Glu-Thr-Ala-Ser-Ile-Pro-Pro-GI n-Lys-Thr-^DSer-Tyr-)] (cyclo([Gly(octyl)]ETASIPPQKT[dS]Y)) | 0.0229 µM | 1432 | 32.8 µM | 2275 | 52.1 µM
2 | CCCCCCCC[C@@H]1NC(=O)[C@H](CCCCN)NC(=O)[C@@H](CO)NC(=O)[C@H]([C@@H](C)O)NC(=O)[C@H](CCCCN)NC(=O)[C@H](CCC(N)=O)NC(=O)[C@@H]2CCCN2C(=O)[C@@H]2CCCN2C(=O)[C@H]([C@@H](C)CC)NC(=O)[C@H](CO)NC(=O)[C@H](C)NC(=O)[C@H]([C@@H](C)O)NC(=O)[C@H](CCC(=O)O)NC1=O [Example 32, Cyclo(-OctGly-Glu-Thr-Ala-Ser-Ile-Pro-Pro-GI n-Lys-Thr-^DSer-Lys-)] (cyclo([Gly(octyl)]ETASIPPQKT[dS]K)) | 0.0223 µM | >4484 | > 100 µM | 4036 | 90 µM
3 | CCCCCCCC[C@@H]1NC(=O)[C@@H]2CCCN2C(=O)[C@H]2CCCN2C(=O)[C@H]([C@@H](C)O)NC(=O)[C@H](CCCCN)NC(=O)[C@H](CCC(N)=O)NC(=O)[C@@H]2CCCN2C(=O)CN(CCCCN)C(=O)[C@H]([C@@H](C)CC)NC(=O)[C@H](CO)NC(=O)[C@H](C)NC(=O)[C@H]([C@@H](C)O)NC(=O)[C@H](CCC(=O)O)NC1=O [Example 33, Cyclo(-OctGly-Glu-Thr-Ala-Ser-Ile-Nlys-Pro-Gln-Lys-Thr-^DPro-Pro-)] (cyclo([Gly(octyl)]ETASI[Nlys]PQKT[dP]P)) | 0.007 µM | 871 | 6.1 µM | 1186 | 8.3 µM
4 | CCCCCCCC[C@@H]1NC(=O)[C@@H](CCC(=O)O)NC(=O)[C@H]2CCCN2C(=O)[C@H]([C@@H](C)O)NC(=O)[C@H](CCCCN)NC(=O)[C@H](CCC(N)=O)NC(=O)[C@@H]2CCCN2C(=O)[C@@H]2CCCN2C(=O)[C@H]([C@@H](C)CC)NC(=O)[C@H](CO)NC(=O)[C@H](C)NC(=O)[C@H]([C@@H](C)O)NC(=O)[C@H](CCC(=O)O)NC1=O [Example 40, Cyclo(-OctGly-Glu-Thr-Ala-Ser-Ile-Pro-Pro-Gln-Lys-Thr-^DPro-^DGlu-)] (cyclo([Gly(octyl)]ETASIPPQKT[dP][dE])) | 0.0013 µM | >76923 | > 100 µM | >76923 | > 100 µM
5 | CC[C@H](C)[C@@H]1NC(=O)[C@H](CO)NC(=O)[C@H](C)NC(=O)[C@H]([C@@H](C)O)NC(=O)[C@H](C(C)C)NC(=O)[C@H](CCCNC(=N)N)NC(=O)[C@@H]2CCCN2C(=O)[C@H]2CCCN2C(=O)[C@H]([C@@H](C)O)NC(=O)[C@H](CCCCN)NC(=O)[C@H](CCC(N)=O)NC(=O)[C@@H]2C[C@@H]3CCCC[C@@H]3N2C(=O)[C@@H]2CCCN2C1=O [Example 41] (cyclo(RVTASIP[Oic]QKT[dP]P)) | 0.0079 µM | >12658 | > 100 µM | >12658 | > 100 µM
6 | CC[C@H](C)[C@@H]1NC(=O)[C@H](CO)NC(=O)[C@H](C)NC(=O)[C@H]([C@@H](C)O)NC(=O)[C@H](CCc2ccc(O)cc2)NC(=O)[C@H](CCCNC(=N)N)NC(=O)[C@@H]2CCCN2C(=O)[C@H]2CCCN2C(=O)[C@H]([C@@H](C)O)NC(=O)[C@H](CCCCN)NC(=O)[C@H](CCC(N)=O)NC(=O)[C@@H]2C[C@@H]3CCCC[C@@H]3N2C(=O)[C@@H]2CCCN2C1=O [Example 42] (cyclo(R[hTyr]TASIP[Oic]QKT[dP]P)) | 0.0048 µM | >20833 | > 100 µM | >20833 | > 100 µM

More lines, now with the values ahead:

Row | IC50 [1] | hNE/hPr3 selectivity (human proteinase 3) | IC50 (human proteinase 3) | hNE/PPE selectivity [2] | IC50 [2] | Compound
7 | 0.0303 µM | 172 | 5.2 µM | 512 | 15.5 µM | CCCCCCCC[C@@H]1NC(=O)[C@@H]2CCCN2C(=O)[C@H]2CCCN2C(=O)[C@H]([C@@H](C)O)NC(=O)[C@H](CCCCN)NC(=O)[C@H](CCC(N)=O)NC(=O)CN(CCC(=O)O)C(=O)[C@@H]2CCCN2C(=O)[C@H]([C@@H](C)CC)NC(=O)[C@H](CO)NC(=O)[C@H](C)NC(=O)[C@H]([C@@H](C)O)NC(=O)[C@H](CCC(=O)O)NC1=O [Example 34, Cyclo(-OctGly-Glu-Thr-Ala-Ser-Ile-Pro-Nglu-Gln-Lys-Thr-^DPro-Pro-)] (cyclo([Gly(octyl)]ETASIP[N(CH2CH2COOH)Gly]QKT[dP]P))
8 | 0.0077 µM | 195 | 1.5 µM | 208 | 1.6 µM | CCCCCCCC[C@@H]1NC(=O)[C@@H]2CCCN2C(=O)[C@H]2CCCN2C(=O)[C@H]([C@@H](C)O)NC(=O)[C@H](CCCCN)NC(=O)[C@H](CCC(N)=O)NC(=O)CN(CCCCN)C(=O)[C@@H]2CCCN2C(=O)[C@H]([C@@H](C)CC)NC(=O)[C@H](CO)NC(=O)[C@H](C)NC(=O)[C@H]([C@@H](C)O)NC(=O)[C@H](CCC(=O)O)NC1=O [Example 35, Cyclo(-OctGly-Glu-Thr-Ala-Ser-Ile-Pro-Nlys-Gln-Lys-Thr-^DPro-Pro-)] (cyclo([Gly(octyl)]ETASIP[Nlys]QKT[dP]P))
9 | 0.0162 µM | 364 | 5.9 µM | 685 | 11.1 µM | CCCCCCCC[C@@H]1NC(=O)[C@@H]2CCCN2C(=O)[C@H]2CCCN2C(=O)[C@H]([C@@H](C)O)NC(=O)[C@H](CCCCN)NC(=O)C[C@H](CCC(N)=O)NC(=O)[C@@H]2CCCN2C(=O)[C@@H]2CCCN2C(=O)[C@H]([C@@H](C)CC)NC(=O)[C@H](CO)NC(=O)[C@H](C)NC(=O)[C@H]([C@@H](C)O)NC(=O)[C@H](CCC(=O)O)NC1=O [Example 36, Cyclo(-OctGly-Glu-Thr-Ala-Ser-Ile-Pro-Pro-[H-β^3-HGln-OH]-Lys-Thr-^DPro-Pro-)] (cyclo([Gly(octyl)]ETASIPP[β3hQ]KT[dP]P))
10 | 0.0415 µM | 371 | 15.4 µM | 212 | 8.8 µM | CCCCCCCC[C@@H]1NC(=O)[C@@H]2CCCN2C(=O)[C@H]2CCCN2C(=O)[C@H]([C@@H](C)O)NC(=O)C[C@H](CCCCN)NC(=O)[C@H](CCC(N)=O)NC(=O)[C@@H]2CCCN2C(=O)[C@@H]2CCCN2C(=O)[C@H]([C@@H](C)CC)NC(=O)[C@H](CO)NC(=O)[C@H](C)NC(=O)[C@H]([C@@H](C)O)NC(=O)[C@H](CCC(=O)O)NC1=O [Example 37, Cyclo(-OctGly-Glu-Thr-Ala-Ser-Ile-Pro-Pro-Gln-[H-β^3-H Lys-OH]-Thr-^DPro-Pro-)] (cyclo([Gly(octyl)]ETASIPPQ[β3hK]T[dP]P))
11 | 0.0172 µM | 535 | 9.2 µM | 535 | 9.2 µM | CCCCCCCC[C@@H]1NC(=O)[C@@H]2CCCN2C(=O)[C@H]2CCCN2C(=O)[C@H]([C@@H](C)O)NC(=O)CC[C@H](CCCCN)NC(=O)[C@H](CCC(N)=O)NC(=O)[C@@H]2CCCN2C(=O)[C@@H]2CCCN2C(=O)[C@H]([C@@H](C)CC)NC(=O)[C@H](CO)NC(=O)[C@H](C)NC(=O)[C@H]([C@@H](C)O)NC(=O)[C@H](CCC(=O)O)NC1=O [Example 38, Cyclo(-OctGly-Glu-Thr-Ala-Ser-Ile-Pro-Pro-Gln-[H-γ^4-DiHLys-OH]-Thr-^DPro-Pro-)] (cyclo([Gly(octyl)]ETASIPPQ[X1]T[dP]P))
12 | 0.0029 µM | 24655 | 71.5 µM | 30310 | 87.9 µM | CCCCCCCC[C@@H]1NC(=O)C[C@@H]2CCCN2C(=O)[C@H]2CCCN2C(=O)[C@H]([C@@H](C)O)NC(=O)[C@H](CCCCN)NC(=O)[C@H](CCC(N)=O)NC(=O)[C@@H]2CCCN2C(=O)[C@@H]2CCCN2C(=O)[C@H]([C@@H](C)CC)NC(=O)[C@H](CO)NC(=O)[C@H](C)NC(=O)[C@H]([C@@H](C)O)NC(=O)[C@H](CCC(=O)O)NC1=O [Example 39] (cyclo([Gly(octyl)]ETASIPPQKT[dP][β3hP]))
